Measurements reported in patent publication US20190224238A1, “TUMOR THERAPEUTIC DRUG” (HUBEI SOUNDNY BIO TECH CO., LTD., priority 2016, published 2019).

Experiments:
[1] = tested on: H22 cell hepatoma ascites model; experiment: Survival of BALB/c mouse H22 hepatoma ascites model; format: in vivo; conditions: until the 34th (H22-MPs), 33th (Ery-MPs), 31th (methotrexate) day; 10 mice per group
Method: 3) On the first day, 5×10^4 H22 cells were intraperitoneally inoculated into BALB/c mice, and a total of 40 BALB/c mice were injected to obtain the one with H22 cell hepatoma ascites model, which were randomly divided into four groups equally, namely experimental group 1, experimental group 2, experimental group 3 and control group. The BALB/c mice in experimental group 1 were intraperitoneally injected with H22-MPs (MTX); the BALM mice in experimental group 2 were intraperitoneally injected with Ery-MPs (MTX); the BALB/c mice in experimental group 3 were intraperitoneally injected with methotrexate at a dose of 1 μg/g; and the BALB/c mice in the control group were intraperitoneally injected with 200 μL of 0.9% (g/ml) physiological saline.
4) From the 4th day, according to the same injection procedure, the experimental groups were injected with H22-MPs (MTX), Ery-MPs (MTX) and chemotherapy drug (methotrexate) once a day for 7 consecutive days, respectively, while the control group was injected with 200 μL 0.9% (g/ml) physiological saline once a day for 7 consecutive days. From the 11th day, all of the BALB/c mice were fed normally, and the survival status of the BALB/c mice in each group was observed.

[2] = Toxicity and side effect test in BALB/c mice (GPT, serum creatinine, APTT, PT); format: in vivo; conditions: tail vein, once a day for 7 days; blood on 8th day
Method: 3) The prepared H22-MPs (MTX) was injected into 8 BALB/c mice via tail vein respectively, as the experimental group 1; the prepared Ery-MPs (MTX) was injected into 8 BALM mice via tail vein respectively, as the experimental group 2; 8 mice BALB/c mice were injected with methotrexate via tail vein at a dose of 1 μg/g, as the experimental group 3; 8 mice BALB/c mice were injected with 0.9% (g/ml) physiological saline via tail vein, as the control group.
4) On the 8th day, venous blood was taken from the mice in the experimental group 1, the experimental group 2, the experimental group 3 and the control group, and the content of glutamic-pyruvic transaminase, creatinine in serum and the content of APTT and PT in the blood were detected. The body weights of the mice were weighed.

[3] = tested on: Lewis cell lung cancer model; conditions: tail vein, once a day for 10 days from 5th day
Method: 3) On the 1st day, 1×10^6 Lewis cells were inoculated into a C57BL/6 mouse via tail vein, and a total of 32 C57BL/6 mice were injected to obtain the C57BL/6 mice of Lewis cell lung cancer model which were randomly divided into four groups equally, namely, experiment group 1, experiment group 2, experiment group 3 and control group.
From the 15th day, all of the C57BL/6 mice were fed normally, and the survival status of the C57BL/6 mice in each group was observed.

CN(Cc1cnc2nc(N)nc(N)c2n1)c1ccc(C(=O)N[C@@H](CCC(=O)O)C(=O)O)cc1 [methotrexate]
total mice died [1]: 9 mice | average activated partial prothrombin time (APTT) [2]: 16.5 s | average plastin time (PT) [2]: 13.13 s | average serum creatinine content [2]: 26.13 µmol/L | therapeutic effect on lung cancer in mice (survival curve) [3]: much poorer than that of Ery-MPs (MTX) and LLC-MPs (MTX)
